Source: ChEMBL document CHEMBL3244320, “2-Acetylpyridine thiosemicarbazones. 1. A new class of potential antimalarial agents” (J Med Chem, 1979)
Activity calls are given as the source filed them. No cut-off for these calls is given here.

Assays:
Plasmodium berghei [1] = assay: Antimalarial activity against Plasmodium berghei KBG 173 infected in ICR/HA Swiss mouse assessed as increase in mean survival time at 40 mg/kg, sc administered 72 hrs post infection; format: functional; settings: route subcutaneous
Plasmodium berghei [2] = assay: Antimalarial activity against Plasmodium berghei KBG 173 infected in ICR/HA Swiss mouse assessed as increase in mean survival time at 160 mg/kg, sc administered 72 hrs post infection; format: functional; settings: route subcutaneous
Mus musculus [3] = assay: Toxicity in ICR/HA Swiss mouse infected with Plasmodium berghei KBG 173 assessed as mortality at 640 mg/kg, sc administered 72 hrs post infection measured for 6 days; format: organism-based; set-up: dose 640 mg/kg, route subcutaneous; settings: in vivo, 144 h
Mus musculus [4] = assay: Toxicity in ICR/HA Swiss mouse infected with Plasmodium berghei KBG 173 assessed as mortality at 160 mg/kg, sc administered 72 hrs post infection measured for 6 days; format: organism-based; set-up: dose 160 mg/kg, route subcutaneous; settings: in vivo, 144 h
Mus musculus [5] = assay: Toxicity in ICR/HA Swiss mouse infected with Plasmodium berghei KBG 173 assessed as mortality at 40 mg/kg, sc administered 72 hrs post infection measured for 6 days; format: organism-based; set-up: dose 40 mg/kg, route subcutaneous; settings: in vivo, 144 h
Plasmodium berghei [6] = assay: Antimalarial activity against Plasmodium berghei KBG 173 infected in ICR/HA Swiss mouse assessed as increase in mean survival time at 640 mg/kg, sc administered 72 hrs post infection; format: functional; settings: route subcutaneous
Plasmodium berghei [7] = assay: Antimalarial activity against Plasmodium berghei KBG 173 infected in ICR/HA Swiss mouse assessed as increase in mean survival time at 320 mg/kg, sc administered 72 hrs post infection; format: functional; settings: route subcutaneous
Plasmodium berghei [8] = assay: Antimalarial activity against Plasmodium berghei KBG 173 infected in ICR/HA Swiss mouse assessed as curative effect at 160 mg/kg, sc administered 72 hrs post infection; format: functional, organism-based; set-up: dose 160 mg/kg
Plasmodium berghei [9] = assay: Antimalarial activity against Plasmodium berghei KBG 173 infected in ICR/HA Swiss mouse assessed as increase in mean survival time at 80 mg/kg, sc administered 72 hrs post infection; format: functional; settings: route subcutaneous
Plasmodium berghei [10] = assay: Antimalarial activity against Plasmodium berghei KBG 173 infected in ICR/HA Swiss mouse at 40 to 640 mg/kg, sc administered 72 hrs post infection; format: functional, organism-based
Plasmodium berghei [11] = assay: Antimalarial activity against Plasmodium berghei KBG 173 infected in ICR/HA Swiss mouse assessed as curative effect at 320 mg/kg, sc administered 72 hrs post infection; format: functional, organism-based; set-up: dose 320 mg/kg
Mus musculus [12] = assay: Toxicity in ICR/HA Swiss mouse infected with Plasmodium berghei KBG 173 assessed as mortality at 320 mg/kg, sc administered 72 hrs post infection measured for 6 days; format: organism-based; set-up: dose 320 mg/kg, route subcutaneous; settings: in vivo, 144 h

With `C/C(=N\NC(=S)NCCO)c1ccccn1` the MST (Plasmodium berghei [1]) was 0.3 days, the MST (Plasmodium berghei [2]) was 0.5 days and the Activity (Mus musculus [3]) was “Toxic”.
With `C/C(=N\NC(N)=S)c1ccccn1` the Activity (Mus musculus [4]) was “Toxic”, the Activity (Mus musculus [5]) was “Toxic” and the Activity (Mus musculus [3]) was “Toxic”.
With `C/C(=N\NC(=S)NCc1ccccc1C)c1ccccn1` the MST (Plasmodium berghei [6]) was 8.9 days, the MST (Plasmodium berghei [7]) was 7.7 days and the MST (Plasmodium berghei [1]) was 0.1 days. For the same compound, the Activity (Plasmodium berghei [8]) was “Active”, the MST (Plasmodium berghei [9]) was 2.5 days and the MST (Plasmodium berghei [2]) was 5.9 days.
In the case of `Br.CCN(CC)CCCC(C)NC(=S)N/N=C(\C)c1ccccn1` (centres undefined), the MST (Plasmodium berghei [1]) is reported as 0.3 days and the Activity (Mus musculus [3]) is reported as “Toxic”.
`C=CCNC(=S)N/N=C(\C)c1ccccn1` showed an MST (Plasmodium berghei [7]) of 3 days, an MST (Plasmodium berghei [1]) of 0.5 days and an MST (Plasmodium berghei [9]) of 2.3 days. For the same compound, the MST (Plasmodium berghei [2]) was 3.1 days and the Activity (Mus musculus [3]) was “Toxic”.
With `C/C(=N\NC(=S)Nc1ccccc1)c1cccnc1` the Activity (Plasmodium berghei [10]) was “inactive”.
With `C/C(=N\NC(=S)Nc1cccc(C)c1)c1ccccn1` the MST (Plasmodium berghei [7]) was 10.3 days, the MST (Plasmodium berghei [1]) was 0.4 days and the Activity (Plasmodium berghei [11]) was “Active”. It also gave an MST (Plasmodium berghei [9]) of 3 days and an MST (Plasmodium berghei [2]) of 7.4 days.
Work on `C/C(=N\NC(=S)NC1CCCCCCC1)c1ccccn1` yielded an MST (Plasmodium berghei [6]) of 10.7 days, an MST (Plasmodium berghei [7]) of 4.8 days and an MST (Plasmodium berghei [1]) of 1.1 days. For the same compound, the Activity (Plasmodium berghei [8]) was “Active”, the MST (Plasmodium berghei [9]) was 1.2 days and the MST (Plasmodium berghei [2]) was 3.4 days.
With `C/C(=N\NC(=S)Nc1ccccn1)c1ccncc1` the Activity (Plasmodium berghei [10]) was “inactive”.
For `C/C(=N\NC(=O)Nc1ccccc1)c1ccccn1`, the Activity (Plasmodium berghei [10]) was “inactive”.
Work on `C/C(=N\NC(=S)NCCc1ccccc1)c1ccccn1` yielded an MST (Plasmodium berghei [6]) of 8.8 days, an MST (Plasmodium berghei [7]) of 6.6 days and an MST (Plasmodium berghei [1]) of -0.2 days. For the same compound, the MST (Plasmodium berghei [9]) was 0.6 days and the MST (Plasmodium berghei [2]) was 2 days.
`CCN(CC)Cc1cc(NC(=S)N/N=C(\C)c2ccccn2)ccc1O.Cl.O` was tested, and the Activity (Mus musculus [12]) was “Toxic”, the MST (Plasmodium berghei [1]) was 2 days and the MST (Plasmodium berghei [9]) was 5.6 days. It also gave an MST (Plasmodium berghei [2]) of 8.8 days.
For `C/C(=N\NC(=S)NC12CC3CC(CC(C3)C1)C2)c1ccncc1`, the Activity (Plasmodium berghei [10]) was “inactive”.
`C/C(=N\NC(=S)NCc1ccc(Cl)cc1)c1ccccn1` was tested, and the MST (Plasmodium berghei [6]) was 6.9 days, the MST (Plasmodium berghei [7]) was 4.3 days and the MST (Plasmodium berghei [1]) was 0.5 days. It also gave an MST (Plasmodium berghei [9]) of 0.5 days and an MST (Plasmodium berghei [2]) of 2.1 days.
In the case of `Br.CCN(CC)CCNC(=S)N/N=C(\C)c1ccccn1`, the Activity (Mus musculus [12]) is reported as “Toxic”, the MST (Plasmodium berghei [1]) is reported as 0.3 days and the MST (Plasmodium berghei [2]) is reported as 0.5 days. For the same compound, the Activity (Mus musculus [3]) was “Toxic”.
In the case of `Br.C/C(=N\NC(=S)NCC(C)N(C)C)c1ccccn1` (centres undefined), the MST (Plasmodium berghei [1]) is reported as 0.1 days and the Activity (Mus musculus [3]) is reported as “Toxic”.
With `C/C(=N\NC(=S)Nc1ccc(C)cc1)c1ccccn1` the MST (Plasmodium berghei [1]) was 0.3 days, the Activity (Plasmodium berghei [11]) was “Active” and the MST (Plasmodium berghei [9]) was 2.1 days. It also gave an MST (Plasmodium berghei [2]) of 4.5 days.
`C/C(=N\NC(=S)Nc1ccccn1)c1cccnc1` was tested, and the Activity (Plasmodium berghei [10]) was “inactive”.
With `C/C(=N\NC(=S)Nc1cccc(F)c1)c1ccccn1` the MST (Plasmodium berghei [1]) was 4.4 days, the Activity (Plasmodium berghei [11]) was “Active” and the MST (Plasmodium berghei [9]) was 5.8 days. It also gave an MST (Plasmodium berghei [2]) of 6.6 days.
With `C/C(=N\NC(=S)Nc1ccc(C(C)C)cc1)c1ccccn1` the MST (Plasmodium berghei [6]) was 5.5 days, the MST (Plasmodium berghei [7]) was 5.9 days and the MST (Plasmodium berghei [1]) was 0.5 days. It also gave an MST (Plasmodium berghei [9]) of 1.9 days and an MST (Plasmodium berghei [2]) of 2.1 days.
Compound `C/C(=N\NC(=S)NC(C)(C)CC(C)(C)C)c1ccccn1` has an MST (Plasmodium berghei [6]) of 8.7 days, an MST (Plasmodium berghei [7]) of 2.9 days and an MST (Plasmodium berghei [1]) of 1.1 days. For the same compound, the MST (Plasmodium berghei [9]) was 1.3 days and the MST (Plasmodium berghei [2]) was 0.9 days.
Work on `C/C(=N\NC(=S)Nc1ccccc1Cl)c1ccccn1` yielded an MST (Plasmodium berghei [6]) of 8.1 days, an MST (Plasmodium berghei [7]) of 6.1 days and an MST (Plasmodium berghei [1]) of 0.5 days. It also gave an MST (Plasmodium berghei [9]) of 0.5 days and an MST (Plasmodium berghei [2]) of 2.3 days.
`COc1cccc(NC(=S)N/N=C(\C)c2ccccn2)c1` showed an MST (Plasmodium berghei [6]) of 9.6 days, an MST (Plasmodium berghei [7]) of 4.3 days and an MST (Plasmodium berghei [1]) of 0.3 days. The MST (Plasmodium berghei [9]) was 0.4 days and the MST (Plasmodium berghei [2]) was 8.1 days.
In the case of `C/C(=N\NC(=S)NC12CC3CC(CC(C3)C1)C2)c1cccnc1`, the Activity (Plasmodium berghei [10]) is reported as “inactive”.
`C/C(=N\NC(=S)Nc1ccc(Cl)cc1)c1ccccn1` was tested, and the MST (Plasmodium berghei [6]) was 8.3 days, the MST (Plasmodium berghei [7]) was 4.3 days and the MST (Plasmodium berghei [1]) was 0.5 days. The MST (Plasmodium berghei [9]) was 1.5 days and the MST (Plasmodium berghei [2]) was 1.7 days.
For `C/C(=N\NC(=S)Nc1cccc(Cl)c1)c1ccccn1`, the MST (Plasmodium berghei [6]) was 7.1 days, the MST (Plasmodium berghei [7]) was 5.1 days and the MST (Plasmodium berghei [1]) was 0.3 days. It also gave an MST (Plasmodium berghei [9]) of 0.3 days and an MST (Plasmodium berghei [2]) of 2.5 days.
Work on `COc1ccccc1NC(=S)N/N=C(\C)c1ccccn1` yielded an MST (Plasmodium berghei [6]) of 6.6 days, an MST (Plasmodium berghei [7]) of 4.6 days and an MST (Plasmodium berghei [1]) of 0.1 days. For the same compound, the MST (Plasmodium berghei [9]) was 0.4 days and the MST (Plasmodium berghei [2]) was 2 days.
With `C/C(=N\NC(=S)Nc1ccccc1F)c1ccccn1` the MST (Plasmodium berghei [1]) was 0 days, the Activity (Plasmodium berghei [11]) was “Active” and the MST (Plasmodium berghei [9]) was 2.6 days. It also gave an MST (Plasmodium berghei [2]) of 6.8 days.
`C/C(=N\NC(=S)NCc1cccc(F)c1)c1ccccn1` showed an MST (Plasmodium berghei [6]) of 9.4 days, an MST (Plasmodium berghei [7]) of 5.8 days and an MST (Plasmodium berghei [1]) of 0.4 days. It also gave an MST (Plasmodium berghei [9]) of 1.4 days and an MST (Plasmodium berghei [2]) of 3.4 days.
`C/C(=N\NC(=S)Nc1ccccc1)c1ccncc1` was tested, and the Activity (Plasmodium berghei [10]) was “inactive”.
